We go through two compounds from ChEMBL document CHEMBL5653615 (J Biol Chem, 2013).

In experiment [1] the target is Mast/stem cell growth factor receptor Kit (Homo sapiens) (UniProt P10721). As to the kind of experiment: Inhibition of human c-Kit at 500 nM by HotSpot assay relative to control.
Experiment [2] concerns the target Calcium/calmodulin-dependent protein kinase type II subunit alpha (Homo sapiens) (UniProt Q9UQM7). The experiment in a line: Inhibition of human CAMK2a at 500 nM by HotSpot assay relative to control.
In experiment [3] the target is Calcium/calmodulin-dependent protein kinase type II subunit gamma (Homo sapiens) (UniProt Q13555). As to the kind of experiment: Inhibition of human CAMK2g at 500 nM by HotSpot assay relative to control.
Sequence of Calcium/calmodulin-dependent protein kinase type II subunit gamma (Homo sapiens) (Q13555 whole entry): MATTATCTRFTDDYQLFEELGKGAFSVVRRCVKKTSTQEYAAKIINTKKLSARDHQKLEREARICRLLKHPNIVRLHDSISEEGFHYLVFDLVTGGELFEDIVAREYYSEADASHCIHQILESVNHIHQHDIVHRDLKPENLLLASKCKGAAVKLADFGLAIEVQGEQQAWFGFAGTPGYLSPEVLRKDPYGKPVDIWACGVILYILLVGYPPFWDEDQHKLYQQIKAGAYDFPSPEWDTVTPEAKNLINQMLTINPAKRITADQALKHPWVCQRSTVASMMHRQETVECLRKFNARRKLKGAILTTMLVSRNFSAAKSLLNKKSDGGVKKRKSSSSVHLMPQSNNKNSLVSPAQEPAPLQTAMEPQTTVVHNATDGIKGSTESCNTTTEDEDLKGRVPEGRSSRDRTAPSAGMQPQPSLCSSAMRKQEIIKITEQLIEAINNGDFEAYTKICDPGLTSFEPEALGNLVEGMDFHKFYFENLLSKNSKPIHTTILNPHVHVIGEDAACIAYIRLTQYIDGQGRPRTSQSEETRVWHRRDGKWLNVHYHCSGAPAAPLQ
The target in experiment [4] is CDK9/Cyclin K (Homo sapiens) (UniProt P50750+O75909). The experiment in a line: Inhibition of human CDK9/cyclin K at 500 nM by HotSpot assay relative to control. It counts as protein-complex assay.
The target of experiment [5] is CDK9/cyclin T1 (Homo sapiens) (UniProt O60563+P50750). As to the kind of experiment: Inhibition of human CDK9/cyclin T1 at 500 nM by HotSpot assay relative to control. It counts as protein-complex assay.
Experiment [6] deals with T1, Ephrin type-A receptor 3 (Homo sapiens) (UniProt P29320).
T1 sequence (whole entry): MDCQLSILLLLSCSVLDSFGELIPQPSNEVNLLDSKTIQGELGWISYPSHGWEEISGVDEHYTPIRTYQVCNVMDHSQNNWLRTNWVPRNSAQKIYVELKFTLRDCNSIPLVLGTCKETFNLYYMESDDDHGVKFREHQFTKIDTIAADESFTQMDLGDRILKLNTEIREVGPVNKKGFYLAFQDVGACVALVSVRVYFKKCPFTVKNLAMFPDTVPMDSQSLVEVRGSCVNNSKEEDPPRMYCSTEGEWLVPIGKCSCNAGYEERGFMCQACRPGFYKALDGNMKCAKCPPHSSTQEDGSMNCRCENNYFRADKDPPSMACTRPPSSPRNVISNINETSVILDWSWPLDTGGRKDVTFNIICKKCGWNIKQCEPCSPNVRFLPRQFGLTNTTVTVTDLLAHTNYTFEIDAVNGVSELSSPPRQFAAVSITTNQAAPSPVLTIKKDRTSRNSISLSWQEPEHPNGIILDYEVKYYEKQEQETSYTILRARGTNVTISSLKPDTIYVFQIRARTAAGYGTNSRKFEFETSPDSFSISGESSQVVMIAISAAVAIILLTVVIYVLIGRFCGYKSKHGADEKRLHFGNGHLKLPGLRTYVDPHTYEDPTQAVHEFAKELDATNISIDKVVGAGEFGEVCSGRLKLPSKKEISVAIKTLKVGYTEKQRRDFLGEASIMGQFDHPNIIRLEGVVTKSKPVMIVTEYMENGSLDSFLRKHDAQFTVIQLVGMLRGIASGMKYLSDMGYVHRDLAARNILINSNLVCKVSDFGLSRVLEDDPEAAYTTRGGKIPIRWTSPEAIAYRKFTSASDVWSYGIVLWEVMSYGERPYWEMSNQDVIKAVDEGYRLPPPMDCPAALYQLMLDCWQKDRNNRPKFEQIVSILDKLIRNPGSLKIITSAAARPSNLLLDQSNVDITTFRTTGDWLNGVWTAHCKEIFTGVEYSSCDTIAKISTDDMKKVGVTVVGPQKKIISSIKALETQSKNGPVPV
As to the kind of experiment: Inhibition of human EPHA3 at 500 nM by HotSpot assay relative to control.

The target of experiment [7] is Tyrosine-protein kinase Fgr (Homo sapiens) (UniProt P09769). The experiment in a line: Inhibition of human FGR at 500 nM by HotSpot assay relative to control.
Sequence of Tyrosine-protein kinase Fgr (Homo sapiens) (P09769 2-529 limits assumed): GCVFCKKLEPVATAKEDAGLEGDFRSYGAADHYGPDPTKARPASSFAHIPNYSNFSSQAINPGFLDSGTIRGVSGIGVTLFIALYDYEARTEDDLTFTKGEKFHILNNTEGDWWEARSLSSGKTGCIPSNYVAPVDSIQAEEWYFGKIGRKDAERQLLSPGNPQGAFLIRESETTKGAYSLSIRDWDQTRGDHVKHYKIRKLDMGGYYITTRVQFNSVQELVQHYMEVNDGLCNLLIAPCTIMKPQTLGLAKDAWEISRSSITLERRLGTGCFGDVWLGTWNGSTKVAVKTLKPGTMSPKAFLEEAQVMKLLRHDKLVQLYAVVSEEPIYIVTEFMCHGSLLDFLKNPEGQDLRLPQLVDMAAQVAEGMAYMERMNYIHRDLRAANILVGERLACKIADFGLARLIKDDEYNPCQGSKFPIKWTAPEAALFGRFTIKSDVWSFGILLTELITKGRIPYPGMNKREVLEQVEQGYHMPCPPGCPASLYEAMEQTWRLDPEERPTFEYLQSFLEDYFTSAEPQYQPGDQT
In experiment [8] the target is Homeodomain-interacting protein kinase 1 (Homo sapiens) (UniProt Q86Z02). As to the kind of experiment: Inhibition of human HIPK1 at 500 nM by HotSpot assay relative to control.
The target of experiment [9] is T2, Serine/threonine-protein kinase STK11 (Homo sapiens) (UniProt Q15831).
T2 sequence (whole entry): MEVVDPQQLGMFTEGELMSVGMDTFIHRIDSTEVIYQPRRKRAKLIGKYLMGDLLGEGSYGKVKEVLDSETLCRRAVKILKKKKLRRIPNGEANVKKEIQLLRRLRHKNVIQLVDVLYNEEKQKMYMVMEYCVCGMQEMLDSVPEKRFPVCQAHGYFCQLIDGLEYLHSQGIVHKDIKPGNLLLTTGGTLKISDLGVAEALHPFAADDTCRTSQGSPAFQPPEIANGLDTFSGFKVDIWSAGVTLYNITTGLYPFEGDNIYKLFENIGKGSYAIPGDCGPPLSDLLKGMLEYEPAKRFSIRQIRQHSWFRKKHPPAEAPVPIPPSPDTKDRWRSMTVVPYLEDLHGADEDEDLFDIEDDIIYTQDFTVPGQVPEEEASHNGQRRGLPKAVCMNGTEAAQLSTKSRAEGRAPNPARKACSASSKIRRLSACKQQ
As to the kind of experiment: Inhibition of human LKB1 at 500 nM by HotSpot assay relative to control.

Experiment [10] addresses Leucine-rich repeat serine/threonine-protein kinase 2 (Homo sapiens) (UniProt Q5S007). As to the kind of experiment: Inhibition of human LRRK2 at 500 nM by HotSpot assay relative to control.
Experiment [11] deals with T3, NUAK family SNF1-like kinase 2 (Homo sapiens) (UniProt Q9H093).
T3 sequence (whole entry): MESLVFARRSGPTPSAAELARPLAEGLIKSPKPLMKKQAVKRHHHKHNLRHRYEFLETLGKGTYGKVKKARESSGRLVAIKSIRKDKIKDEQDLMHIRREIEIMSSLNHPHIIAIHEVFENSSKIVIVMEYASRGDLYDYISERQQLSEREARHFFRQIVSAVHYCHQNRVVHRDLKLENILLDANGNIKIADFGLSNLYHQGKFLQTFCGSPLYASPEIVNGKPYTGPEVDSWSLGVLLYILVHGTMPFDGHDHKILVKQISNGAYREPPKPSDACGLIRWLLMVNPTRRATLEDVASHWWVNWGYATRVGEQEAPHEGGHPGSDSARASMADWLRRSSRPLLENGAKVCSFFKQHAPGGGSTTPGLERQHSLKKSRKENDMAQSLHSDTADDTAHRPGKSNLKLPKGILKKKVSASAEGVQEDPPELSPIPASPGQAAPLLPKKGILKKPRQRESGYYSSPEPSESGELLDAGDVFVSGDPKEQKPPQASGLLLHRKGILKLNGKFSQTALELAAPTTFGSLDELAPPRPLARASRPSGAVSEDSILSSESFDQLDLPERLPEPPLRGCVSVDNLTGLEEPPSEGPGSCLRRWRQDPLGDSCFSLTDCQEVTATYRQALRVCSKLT
The experiment in a line: Inhibition of human NUAK2 at 500 nM by HotSpot assay relative to control.

One may read the inhibition as the relative decrease from the control value, in per cent.

Sequence of Mast/stem cell growth factor receptor Kit (Homo sapiens) (P10721 whole entry): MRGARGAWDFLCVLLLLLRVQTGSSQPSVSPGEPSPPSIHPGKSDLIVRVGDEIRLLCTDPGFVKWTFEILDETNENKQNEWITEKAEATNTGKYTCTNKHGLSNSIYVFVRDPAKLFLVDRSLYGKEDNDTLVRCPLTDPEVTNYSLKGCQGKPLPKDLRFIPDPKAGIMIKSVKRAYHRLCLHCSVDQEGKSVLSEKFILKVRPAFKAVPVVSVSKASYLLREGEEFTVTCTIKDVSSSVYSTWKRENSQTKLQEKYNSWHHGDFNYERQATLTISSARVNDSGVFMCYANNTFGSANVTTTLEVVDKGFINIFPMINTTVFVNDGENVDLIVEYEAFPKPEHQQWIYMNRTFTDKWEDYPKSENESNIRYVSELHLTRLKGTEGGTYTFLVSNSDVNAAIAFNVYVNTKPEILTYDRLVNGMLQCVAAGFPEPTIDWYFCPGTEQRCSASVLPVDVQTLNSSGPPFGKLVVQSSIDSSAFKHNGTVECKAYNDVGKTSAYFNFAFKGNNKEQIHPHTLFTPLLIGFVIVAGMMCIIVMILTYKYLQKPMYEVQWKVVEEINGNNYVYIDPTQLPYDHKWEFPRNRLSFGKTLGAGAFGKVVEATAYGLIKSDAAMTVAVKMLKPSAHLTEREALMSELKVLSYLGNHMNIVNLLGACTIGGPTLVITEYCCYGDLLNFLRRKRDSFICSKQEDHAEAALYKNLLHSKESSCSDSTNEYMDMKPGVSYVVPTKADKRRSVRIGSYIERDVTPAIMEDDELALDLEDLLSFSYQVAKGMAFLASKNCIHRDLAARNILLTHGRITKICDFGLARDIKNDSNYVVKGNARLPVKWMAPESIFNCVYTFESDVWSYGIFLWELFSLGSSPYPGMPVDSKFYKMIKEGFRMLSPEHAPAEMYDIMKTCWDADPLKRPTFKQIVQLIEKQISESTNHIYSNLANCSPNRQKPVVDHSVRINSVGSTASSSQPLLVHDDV
Sequence of Leucine-rich repeat serine/threonine-protein kinase 2 (Homo sapiens) (Q5S007 whole entry): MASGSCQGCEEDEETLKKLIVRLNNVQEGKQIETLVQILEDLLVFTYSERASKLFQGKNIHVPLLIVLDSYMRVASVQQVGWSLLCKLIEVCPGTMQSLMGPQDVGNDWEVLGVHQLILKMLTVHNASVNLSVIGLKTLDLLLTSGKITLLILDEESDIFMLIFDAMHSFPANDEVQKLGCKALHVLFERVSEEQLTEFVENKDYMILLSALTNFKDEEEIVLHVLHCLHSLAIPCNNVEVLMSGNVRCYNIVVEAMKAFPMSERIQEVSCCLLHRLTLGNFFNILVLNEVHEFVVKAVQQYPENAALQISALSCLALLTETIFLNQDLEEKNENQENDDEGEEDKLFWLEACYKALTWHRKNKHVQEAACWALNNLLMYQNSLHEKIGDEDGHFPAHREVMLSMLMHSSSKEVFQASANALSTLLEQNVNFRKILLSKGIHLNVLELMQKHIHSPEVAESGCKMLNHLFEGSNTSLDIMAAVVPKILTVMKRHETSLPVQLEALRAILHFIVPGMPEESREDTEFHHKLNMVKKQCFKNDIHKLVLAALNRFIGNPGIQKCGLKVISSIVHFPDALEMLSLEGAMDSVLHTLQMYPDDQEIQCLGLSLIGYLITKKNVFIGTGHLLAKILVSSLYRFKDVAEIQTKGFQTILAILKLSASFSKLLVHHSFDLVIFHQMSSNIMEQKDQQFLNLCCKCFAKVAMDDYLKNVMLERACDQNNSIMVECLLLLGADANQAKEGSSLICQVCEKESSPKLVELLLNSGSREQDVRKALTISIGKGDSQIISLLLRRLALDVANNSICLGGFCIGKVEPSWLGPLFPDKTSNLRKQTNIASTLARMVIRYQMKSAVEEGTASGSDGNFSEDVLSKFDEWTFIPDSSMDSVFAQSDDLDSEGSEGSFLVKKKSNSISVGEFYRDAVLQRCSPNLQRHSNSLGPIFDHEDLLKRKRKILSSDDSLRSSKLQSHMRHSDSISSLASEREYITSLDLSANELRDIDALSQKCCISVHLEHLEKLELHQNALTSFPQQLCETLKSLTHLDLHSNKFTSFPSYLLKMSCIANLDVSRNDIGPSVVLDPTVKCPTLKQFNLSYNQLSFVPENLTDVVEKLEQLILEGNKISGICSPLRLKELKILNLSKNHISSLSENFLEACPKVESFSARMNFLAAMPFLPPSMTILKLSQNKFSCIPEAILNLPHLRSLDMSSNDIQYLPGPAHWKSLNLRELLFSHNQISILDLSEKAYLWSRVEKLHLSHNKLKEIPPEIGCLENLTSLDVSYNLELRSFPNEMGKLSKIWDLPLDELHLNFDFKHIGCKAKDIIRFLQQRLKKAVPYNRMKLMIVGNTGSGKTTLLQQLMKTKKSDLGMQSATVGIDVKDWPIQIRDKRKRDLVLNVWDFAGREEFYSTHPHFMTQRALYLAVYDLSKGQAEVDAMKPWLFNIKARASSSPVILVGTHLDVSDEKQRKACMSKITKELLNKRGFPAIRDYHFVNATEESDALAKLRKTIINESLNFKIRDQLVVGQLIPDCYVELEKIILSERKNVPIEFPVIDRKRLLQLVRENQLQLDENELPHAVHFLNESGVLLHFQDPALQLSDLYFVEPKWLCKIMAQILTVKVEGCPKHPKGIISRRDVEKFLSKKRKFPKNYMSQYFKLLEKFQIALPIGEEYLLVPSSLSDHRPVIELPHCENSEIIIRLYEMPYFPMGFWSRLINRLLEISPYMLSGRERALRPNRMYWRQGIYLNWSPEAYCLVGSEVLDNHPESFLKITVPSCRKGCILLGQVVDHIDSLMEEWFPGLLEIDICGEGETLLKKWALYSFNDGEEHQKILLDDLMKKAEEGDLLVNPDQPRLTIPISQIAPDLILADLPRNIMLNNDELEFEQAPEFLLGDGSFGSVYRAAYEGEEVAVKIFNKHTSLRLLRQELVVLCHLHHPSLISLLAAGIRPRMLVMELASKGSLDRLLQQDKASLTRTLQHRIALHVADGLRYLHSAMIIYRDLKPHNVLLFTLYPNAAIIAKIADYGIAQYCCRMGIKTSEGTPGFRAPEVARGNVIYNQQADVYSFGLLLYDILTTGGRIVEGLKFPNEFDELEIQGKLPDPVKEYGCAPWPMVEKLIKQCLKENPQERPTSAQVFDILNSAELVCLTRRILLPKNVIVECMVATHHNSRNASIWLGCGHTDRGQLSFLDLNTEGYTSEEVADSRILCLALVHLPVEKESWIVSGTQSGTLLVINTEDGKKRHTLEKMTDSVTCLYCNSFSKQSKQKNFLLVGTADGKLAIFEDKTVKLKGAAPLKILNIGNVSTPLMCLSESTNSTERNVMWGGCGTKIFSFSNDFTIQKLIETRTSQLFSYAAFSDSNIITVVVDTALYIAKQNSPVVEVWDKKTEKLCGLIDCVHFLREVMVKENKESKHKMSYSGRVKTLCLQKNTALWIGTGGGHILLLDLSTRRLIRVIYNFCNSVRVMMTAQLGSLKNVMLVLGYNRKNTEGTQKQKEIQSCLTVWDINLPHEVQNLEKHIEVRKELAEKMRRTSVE
Sequence of Calcium/calmodulin-dependent protein kinase type II subunit alpha (Homo sapiens) (Q9UQM7 whole entry): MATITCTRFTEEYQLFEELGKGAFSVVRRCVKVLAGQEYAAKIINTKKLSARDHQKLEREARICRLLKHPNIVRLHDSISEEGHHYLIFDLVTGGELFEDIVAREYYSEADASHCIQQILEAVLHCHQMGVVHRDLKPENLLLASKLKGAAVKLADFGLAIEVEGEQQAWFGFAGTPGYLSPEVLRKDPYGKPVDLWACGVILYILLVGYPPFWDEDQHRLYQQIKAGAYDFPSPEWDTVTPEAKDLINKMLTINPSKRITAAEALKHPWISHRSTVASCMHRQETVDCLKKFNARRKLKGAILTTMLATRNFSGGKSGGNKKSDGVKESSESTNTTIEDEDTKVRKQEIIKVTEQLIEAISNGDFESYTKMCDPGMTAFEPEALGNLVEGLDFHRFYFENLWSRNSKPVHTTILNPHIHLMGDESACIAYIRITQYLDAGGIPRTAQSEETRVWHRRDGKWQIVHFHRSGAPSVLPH

On to `Nc1n[nH]c2nnc(-c3c(-c4ccccc4)nn4ccccc34)cc12`, for which the inhibition is 2.89% in experiment [1]; -2.07% in [2]; 3.3% in [3]; 1.48% in [4]; 2.74% in experiment [5]; 2.18% in experiment [6]. Also, the inhibition is 7.1% in experiment [7]; -4.88% in experiment [8]; 8.15% in [9]; 8.17% in [10]; 12.7% in experiment [11].

As for `Oc1n[nH]c2nnc(-c3c(-c4ccccc4)nn4ccccc34)cc12`, the inhibition was 0.91% in experiment [1]; -5.26% in experiment [2]; 2.06% in [3]; -4.88% in experiment [4]; 3.66% in experiment [5]; 5.45% in [6]. The inhibition in experiment [7] is -0.49%; in experiment [8] it was -1.71%; in experiment [9], 7.3%; in experiment [10] it was -1.49%; in [11], -6.46%.
